Test results: patent publication US5663181A, “Naphthyridine derivatives, their methods of preparation and pharmaceutical compositions in which they are present, useful especially as antiproliferative drugs” (Laboratoires UPSA, priority 1993, dated 1997)

Test system: balb c 3T3 fibroblasts
Assay: Inhibition of PDGF-stimulated balb c 3T3 fibroblast proliferation (3H-thymidine incorporation)
Type: cell-based
Conditions: Mus musculus, BALB/c3T3; ^3 H-thymidine incorporation stimulated by PDGF in balb c 3T3 fibroblasts
Method: Measurement of inhibition of the balb c 3T3 fibroblast proliferation induced by a growth factor […]
Inhibition of the cell proliferation induced by a growth factor (for example PDGF) is evaluated by measuring the ^3 H-thymidine incorporation into balb c 3T3 fibroblasts.
The balb c 3T3 fibroblasts are cultivated at 37° C. with 5% of CO2 up to the point of subconfluence and are then placed for 24 hours under rest conditions in a serum-impoverished medium. They are subsequently pretreated for one hour with the test molecule and then stimulated for 24 hours with a growth factor (for example PDGF). ^3 H-Thymidine is incorporated over the last 2 hours. All these steps are performed at 37° C. with 5% of CO2.
The reaction is terminated by sucking off the reaction medium, detaching the cells and then filtering the lyzed cells through glass fiber filters.
The results are expressed as the percentage inhibition of the stimulation of ^3 H-thymidine incorporation due to the action of the growth factor.

N#CC(=Cc1cc2cccnc2n(-c2cc(Cl)cc(Cl)c2)c1=O)c1cccnc1 [Example 78, 3-[1-(3,5-dichlorophenyl)-1,2-dihydro-2-oxo-1,8-naphthyridin-3-yl]-2-(3-pyridyl)prop-2-enenitrile]
IC50: 300 nM

N#CC(=Cc1cc2cccnc2n(-c2cc(Cl)cc(Cl)c2)c1=O)c1ccncc1 [Example 81, 3-[1-(3,5-dichlorophenyl)-1,2-dihydro-2-oxo-1,8-naphthyridin-3-yl]-2-(4-pyridyl)prop-2-enenitrile]
IC50: 200 nM
